Measured values reported in patent publication US9102638B2, “Amidobenzothiazoles and process for the preparation thereof” (COUNCIL OF SCIENTIFIC & INDUSTRIAL RESEARCH, priority 2011, dated 2015).

Key:
Format in all cases: cell-based
SF-295 = test: In vitro cytotoxicity, NCI screen: SF-295 (CNS); conditions: Homo sapiens; SF-295, CNS panel, NCI protocol; read-out: GI50 values (μM conc.)
Experimental: (§1) The in vitro anticancer activity studies for these amidobenzothiazoles were carried out at the National Cancer Institute, Maryland, USA.
(§2) The amidobenzothiazoles have been tested against sixty human tumor cell lines derived from nine cancer types (leukemia cancer cell line, non-small cell lung cancer cell line, colon cancer cell line, CNS cancer cell line, melanoma cancer cell line, ovarian cancer cell line, renal cancer cell line, prostate cancer cell line and breast cancer cell lines). For these compounds results are expressed in GI50 values of that particular cancer cell at micro molar (μM) concentration as per NCI protocol.

HCC-2998 = test: In vitro cytotoxicity, NCI screen: HCC-2998 (Colon); conditions: Homo sapiens; HCC-2998, Colon panel, NCI protocol; read-out: GI50 values (μM conc.)
Experimental: as §1, §2

SK-MEL-2 = test: In vitro cytotoxicity, NCI screen: SK-MEL-2 (Melanoma); conditions: Homo sapiens; SK-MEL-2, Melanoma panel, NCI protocol; read-out: GI50 values (μM conc.)
Experimental: as §1, §2

CAKI-1 = test: In vitro cytotoxicity, NCI screen: CAKI-1 (Renal); conditions: Homo sapiens; CAKI-1, Renal panel, NCI protocol; read-out: GI50 values (μM conc.)
Experimental: as §1, §2

OVCAR-8 = test: In vitro cytotoxicity, NCI screen: OVCAR-8 (Ovarian); conditions: Homo sapiens; OVCAR-8, Ovarian panel, NCI protocol; read-out: GI50 values (μM conc.)
Experimental: as §1, §2

U251 = test: In vitro cytotoxicity, NCI screen: U251 (CNS); conditions: Homo sapiens, U-251; U251, CNS panel, NCI protocol; read-out: GI50 values (μM conc.)
Experimental: as §1, §2

OVCAR-4 = test: In vitro cytotoxicity, NCI screen: OVCAR-4 (Ovarian); conditions: Homo sapiens; OVCAR-4, Ovarian panel, NCI protocol; read-out: GI50 values (μM conc.)
Experimental: as §1, §2

NCI-H23 = test: In vitro cytotoxicity, NCI screen: NCI-H23 (Non-small cell lung); conditions: Homo sapiens; NCI-H23, Non-small cell lung panel, NCI protocol; read-out: GI50 values (μM conc.)
Experimental: as §1, §2

786-0 = test: In vitro cytotoxicity, NCI screen: 786-0 (Renal); conditions: Homo sapiens; 786-0, Renal panel, NCI protocol; read-out: GI50 values (μM conc.)
Experimental: as §1, §2

COLO-205 = test: In vitro cytotoxicity, NCI screen: COLO-205 (Colon); conditions: Homo sapiens; COLO-205, Colon panel, NCI protocol; read-out: GI50 values (μM conc.)
Experimental: as §1, §2

A549/ATCC = test: In vitro cytotoxicity, NCI screen: A549/ATCC (Non-small cell lung); conditions: Homo sapiens, Non-small cell lung panel, NCI protocol, read-out: GI50 values (μM conc.)
Experimental: as §1, §2

OVCAR-5 = test: In vitro cytotoxicity, NCI screen: OVCAR-5 (Ovarian); conditions: Homo sapiens; OVCAR-5, Ovarian panel, NCI protocol; read-out: GI50 values (μM conc.)
Experimental: as §1, §2

HT29 = test: In vitro cytotoxicity, NCI screen: HT29 (Colon); conditions: Homo sapiens, HT-29; HT29, Colon panel, NCI protocol; read-out: GI50 values (μM conc.)
Experimental: as §1, §2

DU-145 = test: In vitro cytotoxicity, NCI screen: DU-145 (Prostate); conditions: Homo sapiens, read-out: GI50 values (μM conc.)
Experimental: as §1, §2

MDA-MB-468 = test: In vitro cytotoxicity, NCI screen: MDA-MB-468 (Breast); conditions: Homo sapiens, read-out: GI50 values (μM conc.)
Experimental: as §1, §2

SF-268 = test: In vitro cytotoxicity, NCI screen: SF-268 (CNS); conditions: Homo sapiens, read-out: GI50 values (μM conc.)
Experimental: as §1, §2

M14 = test: In vitro cytotoxicity, NCI screen: M14 (Melanoma); conditions: Homo sapiens; M14, Melanoma panel, NCI protocol; read-out: GI50 values (μM conc.)
Experimental: as §1, §2

RPMI-8226 = test: In vitro cytotoxicity, NCI screen: RPMI-8226 (Leukemia); conditions: Homo sapiens; RPMI-8226, Leukemia panel, NCI protocol; read-out: GI50 values (μM conc.)
Experimental: as §1, §2

TK-10 = test: In vitro cytotoxicity, NCI screen: TK-10 (Renal); conditions: Homo sapiens; TK-10, Renal panel, NCI protocol; read-out: GI50 values (μM conc.)
Experimental: as §1, §2

SK-OV-3 = test: In vitro cytotoxicity, NCI screen: SK-OV-3 (Ovarian); conditions: Homo sapiens; SK-OV-3, Ovarian panel, NCI protocol; read-out: GI50 values (μM conc.)
Experimental: as §1, §2

SF-539 = test: In vitro cytotoxicity, NCI screen: SF-539 (CNS); conditions: Homo sapiens, read-out: GI50 values (μM conc.)
Experimental: as §1, §2

RXF 393 = test: In vitro cytotoxicity, NCI screen: RXF 393 (Renal); conditions: Homo sapiens; RXF 393, Renal panel, NCI protocol; read-out: GI50 values (μM conc.)
Experimental: as §1, §2

SR = test: In vitro cytotoxicity, NCI screen: SR (Leukemia); conditions: Homo sapiens, Leukemia panel, NCI protocol, read-out: GI50 values (μM conc.)
Experimental: as §1, §2

NCI-H322M = test: In vitro cytotoxicity, NCI screen: NCI-H322M (Non-small cell lung); conditions: Homo sapiens, Non-small cell lung panel, NCI protocol, read-out: GI50 values (μM conc.)
Experimental: as §1, §2

MDA-MB-231/ATCC = test: In vitro cytotoxicity, NCI screen: MDA-MB-231/ATCC (Breast); conditions: Homo sapiens, Breast panel, NCI protocol, read-out: GI50 values (μM conc.)
Experimental: as §1, §2

CNS cancer cell lines = test: In vitro activity against CNS cancer cell lines (panel range); conditions: Homo sapiens, read-out: GI50 values, range over the listed compounds and the panel
Experimental: as §1, §2

MALME-3M = test: In vitro cytotoxicity, NCI screen: MALME-3M (Melanoma); conditions: Homo sapiens, Melanoma panel, NCI protocol, read-out: GI50 values (μM conc.)
Experimental: as §1, §2

HS 578T = test: In vitro cytotoxicity, NCI screen: HS 578T (Breast); conditions: Homo sapiens, read-out: GI50 values (μM conc.)
Experimental: as §1, §2

NCI-H226 = test: In vitro cytotoxicity, NCI screen: NCI-H226 (Non-small cell lung); conditions: Homo sapiens; NCI-H226, Non-small cell lung panel, NCI protocol; read-out: GI50 values (μM conc.)
Experimental: as §1, §2

NCI-H460 = test: In vitro cytotoxicity, NCI screen: NCI-H460 (Non-small cell lung); conditions: Homo sapiens; NCI-H460, Non-small cell lung panel, NCI protocol; read-out: GI50 values (μM conc.)
Experimental: as §1, §2

NCI-H522 = test: In vitro cytotoxicity, NCI screen: NCI-H522 (Non-small cell lung); conditions: Homo sapiens; NCI-H522, Non-small cell lung panel, NCI protocol; read-out: GI50 values (μM conc.)
Experimental: as §1, §2

IGROV1 = test: In vitro cytotoxicity, NCI screen: IGROV1 (Ovarian); conditions: Homo sapiens, IGROV-1; IGROV1, Ovarian panel, NCI protocol; read-out: GI50 values (μM conc.)
Experimental: as §1, §2

SMILES	GI50 (SF-295) [µM]	GI50 (HCC-2998) [µM]	GI50 (CAKI-1) [µM]	GI50 (OVCAR-8) [µM]	GI50 (U251) [µM]	GI50 (OVCAR-4) [µM]	GI50 (NCI-H23) [µM]	GI50 (786-0) [µM]	GI50 (COLO-205) [µM]	GI50 (A549/ATCC) [µM]	GI50 (OVCAR-5) [µM]	GI50 (DU-145) [µM]	GI50 (MDA-MB-468) [µM]	GI50 (SF-268) [µM]	GI50 (RPMI-8226) [µM]	GI50 (TK-10) [µM]	GI50 (SK-OV-3) [µM]	GI50 (SF-539) [µM]	GI50 (RXF 393) [µM]	GI50 (NCI-H322M) [µM]	also measured
COc1ccc2nc(NC(=O)COc3cc(/C=C\c4cc(OC)c(OC)c(OC)c4)ccc3OC)sc2c1 [Compound 8g, N1-(6-methoxy-1,3-benzothiazol-2-yl)-2-{2-methoxy-5-[(Z)-2-(3,4,5-trimethoxyphenyl)-1-ethenyl]phenoxy}acetamide]	1.84	7.34	3.2	5.28	4	5.31	3.91	7.52	3.89	5.19	5.89	2.04	2.29	4.31	5.43	7.54	4.69	2.84	2.5	> 100	GI50 (SK-MEL-2): 4.07 µM; GI50 (HT29): 3.34 µM; GI50 (M14): 4.33 µM; GI50 (SR): 3.69 µM; GI50 (MDA-MB-231/ATCC): 5.4 µM; GI50 (CNS cancer cell lines): 0.045 to 18.8 µM; GI50 (MALME-3M): > 100 µM; GI50 (HS 578T): 4.15 µM; GI50 (NCI-H226): 4.51 µM; GI50 (NCI-H460): 3.73 µM; GI50 (NCI-H522): 3.09 µM; GI50 (IGROV1): 7 µM
COc1ccc(C2CC(c3cc(OC)c(OC)c(OC)c3)=NN2C(C)=O)cc1OCC(=O)Nc1nc2ccc(C(F)(F)F)cc2s1 (stereo not drawn) [Compound 10i, N1-(6-(trifluoromethyl)-1,3-benzothiazol-2-yl)-2-{5-[1-acetyl-3-(3,4,5-trimethoxyphenyl)-4,5-dihydro-1H-5-pyrazolyl]-2-methoxyphenoxy}acetamide]	3.06	> 100	2.17	3.36	3.08	2.9	3.76	3.58	3.94	2.16	28.2	1.82	6.12	3.84	2.21	2.85	5.75	1.75	2.09	3.67	GI50 (MDA-MB-231/ATCC): 3.11 µM; GI50 (CNS cancer cell lines): 0.045 to 18.8 µM; GI50 (MALME-3M): 6.44 µM; GI50 (HS 578T): 2.48 µM; GI50 (NCI-H226): 2.22 µM; GI50 (NCI-H522): 2.71 µM; GI50 (IGROV1): 5.3 µM
COc1ccc(/C=C\c2cc(OC)c(OC)c(OC)c2)cc1OCC(=O)Nc1nc2ccc(OC(F)(F)F)cc2s1 [Compound 8j, N1-(6-(trifluoromethoxy)-1,3-benzothiazol-2-yl)-2-{2-methoxy-5-[(Z)-2-(3,4,5-trimethoxyphenyl)-1-ethenyl]phenoxy}acetamide]	3.7	17.1	4.6	5	3.37	5.34	4.39	54.3	43.3	6	3.12	4.11	2.3	6.01	5.83	18.6	8.42	2.28	2.65	> 100	GI50 (SK-MEL-2): 3.29 µM; GI50 (HT29): > 100 µM; GI50 (M14): 4.36 µM; GI50 (SR): 3.55 µM; GI50 (MDA-MB-231/ATCC): 5.16 µM; GI50 (CNS cancer cell lines): 0.045 to 18.8 µM; GI50 (HS 578T): 4.33 µM; GI50 (NCI-H226): 4.3 µM; GI50 (NCI-H460): 4.11 µM; GI50 (NCI-H522): 3.16 µM; GI50 (IGROV1): 5.64 µM
